{"source": "patent US4221805A", "about": "“Method of inducing platelet antiaggregation activity” (priority 1978, dated 1980)", "key": {"[1]": {"system": "human PRP (Platelet Rich Plasma), platelet aggregation induced by ADP", "assay": "In vitro platelet antiaggregation activity (Born method, ADP-induced)", "assay_type": "cell-based", "method": "The method described by Born (Nature, 194, 927, 1962) was followed for this test, based on the increase in the platelet aggregation induced by ADP. The experiment was conducted using a human PRP (Platelet Rich Plasma) pool from four healthy volunteers who had not taken any drugs for ten days. The PRP was adjusted to 280,000±20,000 and kept at ambient temperature for the entire duration of the test.\n400 μl of PRP and 100 μl of MRAP2 dissolved in a physiological solution and adjusted to a pH of 7.4 were placed in plastic test tubes. Three doses of the drug in question (0.181, 0.904 and 1.818 mg/ml) were used.\nThree dilutions of aspirin were prepared under the same conditions for use as a comparison drug. Two minutes after contact between the drug and PRP, the test tube was inserted into the aggregometer cell (EEI, Model 169 with Corning Recorder Mod.840). After 60 seconds, ADP (10^-3 mM) was added and the aggregation was recorded. In calculating the antiaggregation activity, reference was made to the maximum amplitude of the aggregation curved obtained with ADP. Assuming this amplitude to be 100, the amplitudes of the curves obtained with the various doses of MRAP2 and aspirin were calculated as a percentage."}, "[2]": {"system": "cardiovascular system of cats", "assay": "Effect on the cardiovascular system of cats", "assay_type": "in vivo", "conditions": "intravenous 5 mg/kg", "method": "Three cats weighing 2.4-2.6 kg were used for this test. The MRAP2 was administered intravenously in a dose of 5 mg/kg, carried in a sterile physiological solution. The animals, under combined anaesthesia with ethylurethane and diallylbarbituric acid, were subjected to measurements, by means of the Battaglia-Rangoni polygraph, of the arterial pressure, the cardiac frequency, the nictitation and the electrocardiac activity, before and up to two hours after the administration of the drug."}, "rats": {"system": "rats", "assay": "Acute toxicity in rats, endoperitoneal administration (LD50)", "assay_type": "in vivo", "conditions": "20 animals per dose", "method": "(§1) 200 albino rats, 100 male and 100 female, of the Wistar strain and weighing 130-150 grams were divided into groups of 10 animals each.\n(§2) After being caged for some days at constant temperature (21°±1° C.) and humidity (60±5%), the animals were fasted for 24 hours before treatment.\n(§3) The MRAP2 was administered in a single administration either orally or endoperitoneally, following the method heretofore described.\n(§4) Teh LD50 was evaluated for each method of administration using the Litchfield and Wilcoxon method, based on the percentage mortality recorded in each group of rats during the seven days following treatment.\n(§5) Five groups of 20 animals, 10 male and 10 female were used."}, "[3]": {"assay": "Acute toxicity in rats, endoperitoneal administration (LD50)", "assay_type": "in vivo", "conditions": "rat, in vivo, ip", "method": "as §1, §2, §3, §4, §5"}, "mice": {"system": "mice", "assay": "Acute toxicity in mice, oral administration (LD50)", "assay_type": "in vivo", "conditions": "20 animals per dose", "method": "(§6) A total of 240 albino mice, 120 male and 120 female, of the Swiss strain and having an average weight of about 20 grams were used. The animals were divided into groups of 10 animals each, and kept caged for some days in an environment at a constant temperature (21°±1° C.) and humidity (60±5%). They were then fasted for 24 hours before the experiment, but were given free access to water.\n(§7) The substance indicated by MRAP2 was administered, in a single administration, either orally or endoperitoneally. The LD50 was evaluated for each of the administration methods, using the method of Litchfield and Wilcoxon, J.Pharmacology, 96, 99, […], based on the mortality recorded for each group of mice over the seven days following administration.\n(§8) Six groups of 20 animals, 10 male and 10 female, which had been given MRAP2 dissolved in tap water were used, the method utilised being gastric catheterisation."}, "[4]": {"assay": "Acute toxicity in mice, oral administration (LD50)", "assay_type": "in vivo", "conditions": "mouse, in vivo", "method": "as §6, §7, §8"}}, "note": "Entries after “also recorded” stand apart in the source; their conditions may differ."}
{"smiles": "Cl.Clc1ccccc1CN1CCCC1", "note": "[MRAP2, N-(2-chlorobenzyl)-pyrrolidine hydrochloride]", "values": [{"measurement": "inhibition of platelet aggregation at 181 µg/mL", "setting": "[1]; Platelet, ADP 10^-3 mM, drug 0.181 mg/ml", "value": 26, "unit": "%"}, {"measurement": "activity at 181 µg/mL", "setting": "[1]; Platelet, ADP 10^-3 mM, drug 0.181 mg/ml, serum + ADP = 100", "value": 74, "unit": "%"}, {"measurement": "inhibition of platelet aggregation at 904 µg/mL", "setting": "[1]; Platelet, ADP 10^-3 mM, drug 0.904 mg/ml", "value": 91, "unit": "%"}, {"measurement": "activity at 904 µg/mL", "setting": "[1]; Platelet, ADP 10^-3 mM, drug 0.904 mg/ml, serum + ADP = 100", "value": 9, "unit": "%"}, {"measurement": "inhibition of platelet aggregation at 1818 µg/mL", "setting": "[1]; Platelet, ADP 10^-3 mM, drug 1.818 mg/ml", "value": 92, "unit": "%"}, {"measurement": "activity at 1818 µg/mL", "setting": "[1]; Platelet, ADP 10^-3 mM, drug 1.818 mg/ml, serum + ADP = 100", "value": 8, "unit": "%"}, {"measurement": "platelet antiaggregation activity (in words)", "setting": "[1]; in vitro, ADP, manifested by the dose of 0.904 mg/ml, comparison with aspirin, hydrochloride", "value": "considerable platelet antiaggregation activity; also recorded: clearly superior to that possessed by aspirin"}, {"measurement": "hypertensive effect", "setting": "[2]; in the four minutes following introduction of the drug", "value": "slight hypertensive effect"}, {"measurement": "undesirable effects on the cardiovascular system", "setting": "[2]; up to two hours", "value": "does not give rise to any undesirable effects on the cardiovascular system"}, {"measurement": "No. of animals dead", "setting": "rats; 50 mg/kg", "value": 0}, {"measurement": "No. of animals dead", "setting": "rats; 100 mg/kg", "value": 1}, {"measurement": "No. of animals dead", "setting": "rats; 200 mg/kg", "value": 11}, {"measurement": "No. of animals dead", "setting": "rats; 300 mg/kg", "value": 17}, {"measurement": "No. of animals dead", "setting": "rats; 400 mg/kg", "value": 20}, {"measurement": "mortality at 168 h", "setting": "[3]; 50 mg/kg", "value": 0, "unit": "%"}, {"measurement": "mortality at 168 h", "setting": "[3]; 100 mg/kg", "value": 5, "unit": "%"}, {"measurement": "mortality at 168 h", "setting": "[3]; 200 mg/kg", "value": 55, "unit": "%"}, {"measurement": "mortality at 168 h", "setting": "[3]; 300 mg/kg", "value": 85, "unit": "%"}, {"measurement": "mortality at 168 h", "setting": "[3]; 400 mg/kg", "value": 100, "unit": "%"}, {"measurement": "LD50 at 168 h", "setting": "[3]; single administration, 7 days, 95% limits 174-203", "value": 188, "unit": "mg/kg"}, {"measurement": "No. of animals dead", "setting": "mice; 300 mg/kg", "value": 0}, {"measurement": "No. of animals dead", "setting": "mice; 400 mg/kg", "value": 4}, {"measurement": "No. of animals dead", "setting": "mice; 500 mg/kg", "value": 9}, {"measurement": "No. of animals dead", "setting": "mice; 600 mg/kg", "value": 12}, {"measurement": "No. of animals dead", "setting": "mice; 800 mg/kg", "value": 20}, {"measurement": "No. of animals dead", "setting": "mice; 1000 mg/kg", "value": 20}, {"measurement": "mortality at 168 h", "setting": "[4]; 300 mg/kg", "value": 0, "unit": "%"}, {"measurement": "mortality at 168 h", "setting": "[4]; 400 mg/kg", "value": 20, "unit": "%"}, {"measurement": "mortality at 168 h", "setting": "[4]; 500 mg/kg", "value": 45, "unit": "%"}, {"measurement": "mortality at 168 h", "setting": "[4]; 600 mg/kg", "value": 60, "unit": "%"}, {"measurement": "mortality at 168 h", "setting": "[4]; 800 mg/kg", "value": 100, "unit": "%"}, {"measurement": "mortality at 168 h", "setting": "[4]; 1000 mg/kg", "value": 100, "unit": "%"}, {"measurement": "LD50 at 168 h", "setting": "[4]; single administration, 7 days, 95% limits 515-561", "value": 536, "unit": "mg/kg"}]}
